{"source": "patent EP0791004B1", "about": "“ACYLATED BENZYLGLYCOSIDES AS INHIBITORS OF SMOOTH MUSCLE CELL PROLIFERATION” (AMERICAN HOME PRODUCTS CORPORATION, priority 1994, dated 1996)", "test_system": "Porcine Smooth Muscle Cell", "experiment": "Smooth muscle cell proliferation, 3H thymidine incorporation (serum stimulated)", "type": "cell-based", "conditions": "for IC50: 3H thymidine incorporation, read-out: Porcine Smooth Muscle Cell Antiproliferation IC50", "method": "The ability of the compounds of the present invention to inhibit smooth muscle cell proliferation was established using isolated aortic cells. Porcine aortas were received from a local slaughterhouse and were iced during transit. The aorta was scrupulously cleansed of fatty tissue and rinsed in sterile phosphate-buffered saline with 2% antibiotic/antimycotic (Gibco catalog # 600 - 5240 AG). The tissue was then digested in 10 - 15 mL of \"Enzyme Mixture\" containing collagenase type I, 165 U/mL; elastase type III, 15 U/mL; BSA, 2 mg/mL; and soybean trypsin inhibitor, 0.375 mg/mL followed by incubation at 37 °C under 5% CO2 for 10 - 15 min. After this treatment, the outer surface adventitia was easily removed by peeling with forceps. The aorta was then longitudinally cut and laid open and the endothelial layer was removed by scraping.\nThe medial layer of cells was rinsed in enzyme solution, and placed in a new 100 mm dish with 10 mL of enzyme solution. The aorta was minced using a fine pair of scissors and digested for 2 - 3 h at 37 °C in 30 mL of fresh enzyme solution. After digestion, the tissue was homogenized using a sterile Pasteur pipette with a fire polished tip or an eppendorf pipetter with a 200 - 1000 µL sterile pipette tip. The suspension was then centrifuged for 10 minutes at 8000 rpm and the pellet was suspended in 4 - 6 mL of fresh medium and plated onto 4 - 6 100 mm flasks with vented caps. Cells were allowed to grow to confluence and split using 0.25 % trypsin. Cells were evaluated for purity and overall quality using antibody to SMC actin.\nCells were assayed in early passage (generally passage 3 - 7) at sub-confluent conditions. Cultures were grown in 16 mm (24 well) multi-well culture dishes in medium 199 supplemented with 10% fetal bovine serum and 2% antibiotic/ antimycotic. At sub-confluence, the cells were placed in a defined serum free medium (AIM-V; Gibco) for 24 - 48 h prior to initiating the experimental protocol.\nCompounds were added to each well at 50 fold dilution (20 µL / well) and the plates were incubated for 24 - 36 h at 37 °C in 5% CO2. Compounds were initially dissolved in 50% ethanol and serially diluted into media. Compounds were routinely assayed at concentrations from 1 to 100 µM. As a control, grade II porcine intestinal mucosal heparin (sodium salt) from Sigma (H-7005) was routinely assayed in all cell preparations at concentrations from 0.1 to 100 µg/mL.\nAt the completion of the experiment, plates were placed on ice, washed three times with ice cold phosphate buffered saline (PBS) and incubated in ice cold 10% trichloroacetic acid (TCA) for 30 minutes to remove acid soluble proteins. Solution was transferred to scintillation vials containing 0.4 N HCl (500 µL/vial to neutralize NaOH) and each well was rinsed two times with water (500 µL) for a total volume of 2 mL/vial.\nData was obtained, in triplicate, for both control and experimental samples. Control (100%) data was obtained from maximally stimulated cells, as the result of growth factor or serum stimulation. Experimental data was obtained from cells maximally stimulated with growth factor or serum and treated with compound. Data was expressed as a percent of control from which a percent inhibition or IC50 could be determined.", "key": {"[1]": {"conditions": "Sus scrofa, read-out: Porcine Smooth Muscle Cell Antiproliferation (% Inhibition at x concentration)"}}, "data": [{"compound": "CC(=O)OC[C@H]1O[C@@H](OCc2ccc(C)c(NC(=O)c3cccc([N+](=O)[O-])c3)c2)[C@H](OC(C)=O)[C@@H](OC(C)=O)[C@@H]1OC(C)=O", "note": "[Example 1, N-[2-Methyl-5-(2,3,4,6-tetra-O-acetyl-β-D-glucopyranosyloxymethyl)phenyl]-3-nitrobenzamide]", "values": [{"measurement": "inhibition at 50 µg/mL", "setting": "[1]", "value": 79, "unit": "%"}]}, {"compound": "CC(=O)OC[C@H]1O[C@@H](OCc2ccc(C)c(NC(=O)c3cccc(N)c3)c2)[C@H](OC(C)=O)[C@@H](OC(C)=O)[C@@H]1OC(C)=O", "note": "[Example 2, 3-Amino-N-[2-methyl-5-(2,3,4,6-tetra-O-acethyl-β-D-glucopyranosyloxymethyl)phenyl]benzamide]", "values": [{"measurement": "inhibition at 50 µg/mL", "setting": "[1]", "value": 23, "unit": "%"}]}, {"compound": "CC(=O)OC[C@H]1O[C@H](O[C@H]2[C@H](OC(C)=O)[C@@H](OC(C)=O)[C@H](OCc3ccc(C)c(NC(=O)c4cccc([N+](=O)[O-])c4)c3)O[C@@H]2COC(C)=O)[C@H](OC(C)=O)[C@@H](OC(C)=O)[C@@H]1OC(C)=O", "note": "[Example 4, N-[5-(Hepta-O-acetyl-β-D-maltosyloxymethyl)-2-methylphenyl]-3-nitrobenzamide]", "values": [{"measurement": "inhibition at 50 µg/mL", "setting": "[1]", "value": 13, "unit": "%"}]}, {"compound": "CC(=O)OC[C@H]1O[C@H](O[C@H]2[C@H](OC(C)=O)[C@@H](OC(C)=O)[C@H](OCc3ccc(C)c(NC(=O)c4cccc(N)c4)c3)O[C@@H]2COC(C)=O)[C@H](OC(C)=O)[C@@H](OC(C)=O)[C@@H]1OC(C)=O", "note": "[Example 5, N-[5-(Hepta-O-acetyl-β-D-maltosyloxymethyl)-2-methylphenyl]-3-aminobenzamide]", "values": [{"measurement": "inhibition at 50 µg/mL", "setting": "[1]", "value": 44, "unit": "%"}]}, {"compound": "CC(=O)OC[C@H]1O[C@H](O[C@H]2[C@H](OC(C)=O)[C@@H](OC(C)=O)[C@H](OCc3ccc(C)c(NS(=O)(=O)c4ccc(C)cc4)c3)O[C@@H]2COC(C)=O)[C@H](OC(C)=O)[C@@H](OC(C)=O)[C@@H]1OC(C)=O", "note": "[Example 24, N-[5-(Hepta-O-acetyl-β-D-maltosyloxymethyl)-2-methylphenyl]-4-methylbenzenesulfonamide]", "values": [{"measurement": "inhibition at 40 µM", "setting": "[1]", "value": 61, "unit": "%"}]}, {"compound": "CC(=O)OC[C@H]1O[C@H](O[C@H]2[C@H](OC(C)=O)[C@@H](OC(C)=O)[C@H](OCc3ccc(N)c(C)c3)O[C@@H]2COC(C)=O)[C@H](OC(C)=O)[C@@H](OC(C)=O)[C@@H]1OC(C)=O", "note": "[Example 29, 4-(Hepta-O-acetyl-β-D-maltosyloxymethyl)-2-methylphenylamine]", "values": [{"measurement": "inhibition at 40 µM", "setting": "[1]", "value": 70, "unit": "%"}]}, {"compound": "CC(=O)OC[C@H]1O[C@H](O[C@H]2[C@H](OC(C)=O)[C@@H](OC(C)=O)[C@H](OCc3ccc(N(S(=O)(=O)c4ccc([N+](=O)[O-])cc4)S(=O)(=O)c4ccc([N+](=O)[O-])cc4)c(C)c3)O[C@@H]2COC(C)=O)[C@H](OC(C)=O)[C@@H](OC(C)=O)[C@@H]1OC(C)=O", "note": "[Example 31, N-[4-(Hepta-O-acetyl-β-D-maltosyloxymethyl)-2-methylphenyl]-4-nitro-N-(4-nitrophenylsulfonyl)benzenesulfonamide]", "values": [{"measurement": "inhibition at 100 µM", "setting": "Sus scrofa, at 100 µM, read-out: Porcine Smooth Muscle Cell Antiproliferation (% Inhibition at x concentration)", "value": 37, "unit": "%"}]}, {"compound": "CCC(=O)OC[C@H]1O[C@H](O[C@H]2[C@H](OC(=O)CC)[C@@H](OC(=O)CC)[C@H](OCc3ccc(C)c(N(C(=O)CC)S(=O)(=O)c4ccc(N(C(=O)CC)S(C)(=O)=O)cc4)c3)O[C@@H]2COC(=O)CC)[C@H](OC(=O)CC)[C@@H](OC(=O)CC)[C@@H]1OC(=O)CC", "note": "[Example 33, N-Propionyl-4-[propionyl(methanesulfonyl)amino]-N-[5-(hepta-O-propionyl-β-D-maltosyloxymethyl)-2-methylphenyl]benzenesulfonamide]", "values": [{"measurement": "inhibition at 20 µM", "setting": "Sus scrofa, at 20 µM, read-out: Porcine Smooth Muscle Cell Antiproliferation (% Inhibition at x concentration)", "value": 30, "unit": "%"}]}, {"compound": "Butane-1-sulfonic Acid N-[5-(Hepta-O-acetyl-β-D-maltosyloxymethyl)-2-methylphenyl]amide [Example 28]", "values": [{"measurement": "IC50", "value": 9, "unit": "µM"}]}, {"compound": "N-{3-[2-(Hepta-O-acetyl-β-D-maltosyloxymethyl)-6-methylphenylcarbamoyl]phenyl}-3,5-di-tert-butyl-4-hydroxybenzamide [Example 7]", "values": [{"measurement": "IC50", "value": 185, "unit": "µM"}]}]}
